Assay results from patent publication US20250034523A1, “METHODS OF GENERATING HUMAN COCHLEAR HAIR CELLS” (THE TRUSTEES OF INDIANA UNIVERSITY, priority 2021, published 2025).

System: hESC-derived PAX2-nGFP+ otic progenitors
Assay: ventral/dorsal otic marker expression in otic progenitors (D20 scRNA-seq, D25 immunofluorescence)
Format: cell-based, human
Procedure: PAX2-2A-nGFP/POU4F3-2A-ntdTomat hESCs (passages 22-50) were maintained and passaged in Essential 8 Flex Medium (Thermo Fisher, A2858501) supplemented with 100 μg/ml Normocin (E8fn) on recombinant human Vitronectin-N(Thermo Fisher, A14700)-coated 6-well plates. Human inner ear organoids were derived from hESCs based on the inventors' previous protocol 8.10 with major modifications. Briefly, hESCs were dissociated with StemPro Accutase (Thermo Fisher, A1110501) and distributed at 3500 cells per well onto low-adhesion 96-well U-bottom plates in 100 μL E8fn containing 20 μM Y-27632 (Stemgent, 04-0012-02) and forcibly aggregated at 120 g for 5 minutes. 100 μL of E8fn was added to each well after >4 h of incubation. Induction of non-neural epithelium occurred following 48 h of aggregation, marking differentiation day 0, as follows: aggregates were washed extensively in DMEM:F12 with HEPES buffer (DFH) (Thermo Fisher, 11320033) and transferred to new 96-well U-bottom plates in 100 μL of E6 medium (Thermo Fisher, A1516401) with Normocin (E6n) containing 4 ng mL^−1 FGF-2 (StemCell Technologies, 780003), 10 μM SB-431542 (Stemgent, 04-0010-05), and 2% growth factor reduced (GFR) Matrigel (Corning, 354230). On day 3 of differentiation, 25 μL of E6n containing 50 ng/ml FGF-2 and 200 nM LDN-193189 (Stemgent, 04-0074-02) was added to each well. […]

c1ccc2c(Oc3nc(Nc4ccc(N5CCOCC5)cc4)c4ncn(C5CCCCC5)c4n3)cccc2c1 [PUR, 9H-Purin-6-amine, 9-cyclohexyl-N-[4-(4-morpholinyl)phenyl]-2-(1-naphthalenyloxy)-]
ventral otic marker expression (D20-D25 organoids): not sufficient | expression of SHH pathway genes SULF1, LRP2, GAS1, PTCH1 (D20 otic progenitors): attenuated
